Measurements: the supplement of paper PMC10307832

Tests used:
Experiment in all cases: relative viability (nuclei count vs DMSO), 5 days (fraction); higher = more cells survive
[1] = compound: CC(C)(C)c1nc(-c2cccc(NS(=O)(=O)c3c(F)cccc3F)c2F)c(-c2ccnc(N)n2)s1 [Dabrafenib] + CS(=O)(=O)CCNCc1ccc(-c2ccc3ncnc(Nc4ccc(OCc5cccc(F)c5)c(Cl)c4)c3c2)o1 [Lapatinib] (partner 2 µM)
Summary of the method: (§1)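 Values are medians from duplicate plates. Each reflects relative viability, defined as the nuclei count of treated wells over that of vehicle wells. Lung cancer cell lines in 1536-well plates were pin-tool dosed one day after seeding with one drug alone or with a fixed anchor-drug dose plus five library-drug doses (not always all listed) in √10 steps, then fixed, stained and imaged at 4× after 5 days.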

[2] = compound: CC(C)(C)c1nc(-c2cccc(NS(=O)(=O)c3c(F)cccc3F)c2F)c(-c2ccnc(N)n2)s1 [Dabrafenib] + Cc1nc(Nc2ncc(C(=O)Nc3c(C)cccc3Cl)s2)cc(N2CCN(CCO)CC2)n1 [Dasatinib] (partner 0.075 µM)
Summary of the method: as §1

[3] = compound: NC(=O)c1ccc(N(C(N)=O)c2c(F)cccc2F)nc1-c1ccc(F)cc1F [VX-702] + C[C@@H](Oc1cc(-c2cnn(C3CCNCC3)c2)cnc1N)c1c(Cl)ccc(F)c1Cl [Crizotinib] (partner 1 µM)
Summary of the method: as §1

[4] = compound: NC(=O)c1ccc(N(C(N)=O)c2c(F)cccc2F)nc1-c1ccc(F)cc1F [VX-702] + O=C(c1cc(Cc2n[nH]c(=O)c3ccccc23)ccc1F)N1CCN(C(=O)C2CC2)CC1 [Olaparib] (partner 8 µM)
Summary of the method: as §1

Cell Line | relative viability ([1]; first compound 0.009487 µM) | relative viability ([1]; first compound 0.03 µM) | relative viability ([1]; first compound 0.09487 µM) | relative viability ([1]; first compound 0.3 µM) | relative viability ([2]; first compound 0.003 µM) | relative viability ([2]; first compound 0.009487 µM) | relative viability ([2]; first compound 0.03 µM) | relative viability ([2]; first compound 0.09487 µM) | relative viability ([2]; first compound 0.3 µM) | relative viability ([3]; first compound 0.02 µM) | relative viability ([3]; first compound 0.2 µM) | relative viability ([3]; first compound 0.6325 µM) | relative viability ([3]; first compound 2 µM) | relative viability ([4]; first compound 0.02 µM) | relative viability ([4]; first compound 0.2 µM) | relative viability ([4]; first compound 0.6325 µM) | relative viability ([4]; first compound 2 µM) | relative viability ([1]; first compound 0.003 µM)
LOU-NH91 | 0.789 | 0.683 | 0.772 | 0.802 | 0.41 | 0.573 | 0.582 | 0.49 | 0.568 | 0.711 | 0.741 | 0.786 | 0.659 | 0.888 | 0.891 | 0.911 | 0.881 | –
LU99A | 0.971 | 0.994 | 0.852 | 0.751 | 0.662 | 0.569 | 0.423 | 0.464 | 0.41 | 0.61 | 0.467 | 0.475 | 0.437 | 0.265 | 0.233 | 0.255 | 0.228 | 0.974
LXF-289 | 0.907 | 1.11 | 1 | 1.09 | 0.175 | 0.2 | 0.211 | 0.195 | 0.192 | 0.924 | 0.802 | 0.874 | 0.864 | 1.08 | 1.07 | 1.06 | 1.1 | 0.867
NCI-H23 | 1.21 | 1.08 | 0.712 | 1.02 | – | 0.814 | 0.873 | 0.625 | 0.666 | 0.524 | 0.523 | 0.678 | 0.756 | 0.372 | 0.254 | 0.329 | 0.402 | –
NCI-H322M | 0.657 | – | 0.584 | 0.559 | – | 0.229 | 0.233 | 0.279 | 0.236 | 1.04 | 0.861 | 1.01 | 1.08 | 1.26 | 0.839 | 0.806 | 0.929 | –
NCI-H358 | 0.53 | 0.369 | 0.446 | 0.465 | 0.185 | 0.197 | 0.233 | 0.487 | 0.392 | 0.659 | 0.549 | 0.542 | 0.681 | 0.628 | 0.526 | 0.561 | 0.634 | –
NCI-H460 | 1.03 | 1.05 | 0.925 | 0.83 | 0.43 | 0.529 | 0.615 | 0.509 | 0.571 | 0.835 | 0.951 | 0.958 | 1.05 | 0.428 | 0.438 | 0.548 | 0.26 | 1.04
NCI-H520 | 0.867 | 0.642 | 0.816 | 0.727 | 0.223 | 0.24 | 0.199 | 0.179 | 0.177 | 0.887 | 0.687 | 0.784 | 0.966 | 0.358 | 0.305 | 0.379 | 0.289 | 0.856
NCI-H596 | 1.11 | 0.814 | 1.04 | 1.05 | – | 0.624 | 0.742 | 0.544 | 0.646 | 0.914 | 0.986 | 1.02 | 1.19 | 0.66 | 0.714 | 0.898 | 0.685 | 0.994
NCI-H647 | 1.24 | 0.812 | 1.01 | 0.893 | 0.0445 | 0.161 | 0.305 | 0.188 | 0.159 | 1.14 | 1 | 1.12 | 1.05 | 0.752 | 0.509 | 0.427 | 0.744 | –
NCI-H650 | 1.1 | 0.623 | 0.514 | 0.435 | – | 0.332 | 0.402 | 0.314 | 0.294 | 0.669 | – | 0.761 | 1.04 | 0.435 | 0.433 | 0.452 | 0.456 | –
NCI-H661 | 0.486 | 0.364 | 0.458 | 0.455 | 0.591 | 0.821 | 1.04 | 0.921 | 1.06 | 1.08 | 0.977 | 0.939 | 1.11 | 0.752 | 0.73 | 0.756 | 0.798 | 0.471
NCI-H727 | 0.811 | 0.658 | 0.755 | 0.817 | – | 0.479 | 0.434 | – | 0.568 | 0.826 | 0.745 | 0.841 | 0.961 | 0.67 | 0.789 | 0.72 | 0.555 | –
NCI-H838 | 1.17 | 0.871 | 0.855 | 1.1 | 0.254 | 0.287 | – | 0.364 | 0.279 | 0.779 | 0.755 | 0.807 | 0.976 | 0.772 | 0.715 | 0.827 | 0.926 | 0.816
NCI-H1355 | 1.11 | 1.03 | – | 1.19 | – | 0.692 | 0.749 | 0.651 | 0.703 | 1.09 | 1.05 | 1.01 | 1.04 | 0.752 | 0.729 | 0.785 | 0.876 | –
NCI-H1437 | 0.756 | 0.911 | 0.785 | 0.816 | 0.281 | 0.372 | 0.256 | 0.39 | 0.482 | 0.916 | 0.871 | 0.873 | 1.18 | 0.656 | 0.633 | 0.643 | 0.691 | 0.687
NCI-H1650 | 1.12 | 0.639 | 0.953 | 1.11 | 0.263 | 0.376 | 0.425 | 0.327 | 0.378 | 1.19 | 1.05 | 1 | 1.24 | 0.78 | 0.813 | 0.806 | 1.16 | 0.632
NCI-H1651 | 0.818 | 0.84 | 0.938 | 0.834 | 0.355 | 0.411 | 0.373 | 0.442 | 0.435 | 0.79 | 0.889 | 0.831 | 0.935 | 0.178 | 0.174 | 0.183 | 0.151 | 0.849
NCI-H1666 | – | 0.623 | 0.629 | 0.745 | 0.84 | 0.775 | 0.798 | 0.809 | 0.822 | 1.1 | 0.923 | 1.03 | 1.12 | 0.804 | 0.754 | 0.826 | 0.733 | 0.547
